{"source": "paper PMC8400343", "about": "“Synthesis and Evaluation of the Antidepressant-like Properties of HBK-10, a Novel 2-Methoxyphenylpiperazine Derivative Targeting the 5-HT1A and D2 Receptors” (Pharmaceuticals, 2021)", "key": {"[1]": {"assay": "MTT viability assay in HepG2 cells", "type": "cell-based", "conditions": "human, % of control, read-out: Viability (% ± SEM)", "protocol": "To investigate the lack of hepatotoxicity of HBK-10 at 25 µM concentration, we used HepG2 cells. Viability was measured using 3-(4,5-dimethyl-thiazol-2-yl)-2,5-diphenyltetrazolium (MTT) assay. We chose 25 µM since such concentration was used in metabolic stability studies.\nTo investigate the preliminary hepatic safety of HBK-10 at the concentration used in metabolic stability study, a human hepatocellular carcinoma cell line—HepG2 (HB-8065TM, ATCC, Manassas, VA, USA) was used in the study. HepG2 cells were cultured in standard conditions (37 °C, 5% CO2, 95% humidity) in appropriate culture medium (according to manufacturer procedure), supplemented with 10% fetal bovine serum (FBS, Gibco, Thermo Fisher Scientific, Waltham, MA, USA) and antibiotics (1% streptomycin/penicillin mixture; Sigma-Aldrich, Steinheim, Germany). Cells were seeded in 96-well plates at density of 1 × 10^4 per well. After 24 h cells were treated with two doses of HBK-10 (5 and 25 µM, solvent—PBS) and incubated for additional 24 h. Following the incubation cells viability was measured with MTT assay. For this purpose, MTT reagent (3-(4,5-dimethylthiazol-2-yl)-2,5-diphenyltetrazolium bromide) (Sigma Aldrich, Steinheim, Germany) was added to each well at the concentration 0.5 mg/mL. After 4 h incubation at 37 °C, the medium was aspirated, and formazan crystals produced in the cells were dissolved in DMSO. Then the absorbance of solution was determined at 570 nm (A570) on plate reader (Spectra iD3 Max, Molecular Devices; San Jose, CA, USA). Viability (% of control) was determined by dividing A570 of experimental wells by of A570 of control wells × 100%."}, "[2]": {"assay": "Metabolic stability in mouse liver microsomes (MLMs)", "type": "in vitro ADME", "protocol": "Next, the target compound was incubated with mouse liver microsomes in the presence of an NADPH regenerating system. In the initial screening phase, the percentage of the parent compound recovered after 30 min of incubation was calculated (Table 2). […] The assay was performed with mouse liver microsomes from male CD-1. […] Metabolic reactions were initiated by the addition of the NADPH regenerating system, containing NADP, glucose-6-phosphate, and glucose-6-phosphate dehydrogenase. […] Enzymatic reactions were quenched by perchloric acid followed by addition of internal standard (pentoxifylline). Negative controls were performed without NADPH-regenerating system. After centrifugation, samples were analyzed by LC/MS (UPLC/MS, Waters Corporation, Milford, MA, USA). In vitro half time (t1/2) and intrinsic clearance (Clint) of test compound in liver microsomes were determined according to literature procedures."}, "mice": {"tested_on": "mice", "assay": "Tail suspension test in mice", "type": "in vivo, mouse", "conditions": "30 min before test", "protocol": "Adult male Albino-Swiss mice (CD-1, 8 weeks old, 18–21g: Jagiellonian University Medical College, Krakow, Poland) were used in all experiments. Unless stated otherwise, the animals were kept in groups of 10 mice in standard cages (37 cm × 21 cm × 15 cm) at a room temperature (22 ± 2 °C), on a 12 h light/dark cycle (lights on 7:00) with ad libitum access to food and water. Mice were used only once in each test. Behavioral experiments were performed between 8 am and 4 pm and evaluated by a trained observer blind to the treatments. Mice were handled for 1 week before starting the experimental procedures. Animals were randomly allocated to the treatment using a computer-generated sequence, and researchers making measurements on the animals or analyzing the results were blind to the allocation. Moreover, experimental groups were distributed across multiple cages, and the location of the mouse cages in the room was changed following each day. […]\nThe experiment was carried out in mice according to the method described by Steru et al. and as previously described. […] The total time of immobility was measured during the 6-min test period. […] The experiments were video-recorded and scored using elevenmaze.com software by a trained observer blind to the treatments."}, "[3]": {"tested_on": "corticosterone-treated mice", "assay": "Forced swim test in corticosterone-induced mouse model of depression", "type": "in vivo", "conditions": "for Decrease of immobility in the forced swim test in corticosterone-treated mice: chronic (3 weeks)", "protocol": "The experiment was performed on mice according to the method described by Porsolt et al. and as previously described. Mice were placed individually in glass cylinders (height 25 cm, diameter 10 cm) filled with water at 24 ± 1 °C to a depth of 10 cm and left there for 6 min. Following a 2 min habituation period, total time spent immobile was recorded during the next 4 min. The animal was considered as immobile when it remained floating passively in the water, making only small movements to keep its head above the water. The experiments were video-recorded and scored using elevenmaze.com software by a trained observer blind to the treatments.\nMice were injected with corticosterone (sc, 20 mg/kg) at random times during the light phase for 21 days. The dose and route of administration of corticosterone were based on our previous study. Control mice received saline containing 0.1% dimethyl sulfoxide (DMSO) and 0.1% Tween (sc). For the next 21 days, 30 min before the corticosterone injection, mice were injected with saline, HBK-10 (0.625 or 1.25 mg/kg), or fluoxetine (15 mg/kg) (ip). Twenty-four hours after the last injection, animals were tested in the forced swim test and locomotor activity test (Figure 8)."}}}
{"compound": "CCC(CN1CCN(c2ccccc2OC)CC1)NCCCOc1c(C)cccc1C.Cl.Cl", "note": "(stereo not shown) [HBK-10, N-(3-(2,6-dimethylphenoxy)propyl)-1-(4-(2-methoxyphenyl)piperazin-1-yl)butan-2-amine dihydrochloride]", "values": [{"measurement": "viability at 24 h, 1 µM", "setting": "[1]; HBK-10 1 μM", "result": "102 ± 3.3", "unit": "%"}, {"measurement": "viability at 24 h, 5 µM", "setting": "[1]; HBK-10 5 μM", "result": "109 ± 0.9", "unit": "%"}, {"measurement": "viability at 24 h, 25 µM", "setting": "[1]; HBK-10 25 μM", "result": "99 ± 2.4", "unit": "%"}, {"measurement": "Recovery percent of parent compound after 30 min, fold higher than buspirone", "setting": "[2]", "result": "more than 100 fold"}, {"measurement": "half-life at 20 µM", "setting": "[2]; male, CD-1, mouse, liver microsomes, pH 7.4, protein concentration 0.8", "result": 25, "unit": "min"}, {"measurement": "remaining at 0.5 h, 20 µM", "setting": "[2]; male, CD-1, mouse, liver microsomes, pH 7.4, protein concentration 0.8, NADPH regenerating system, read-out: % Remaining after 30 min", "result": 36, "unit": "%"}, {"measurement": "microsomal CLint at 20 µM", "setting": "[2]; male, CD-1, mouse, liver microsomes, pH 7.4, protein concentration 0.8, read-out: Intrinsic Clearance (Clint)", "result": 34.6, "unit": "µL/min/mg"}, {"measurement": "Reduction of immobility in the tail suspension test", "setting": "mice; 5 mg/kg ip", "result": 54.5, "unit": "%"}, {"measurement": "Reduction of immobility in the tail suspension test", "setting": "mice; 10 mg/kg ip", "result": 42, "unit": "%"}, {"measurement": "Decrease of immobility in the forced swim test in corticosterone-treated mice", "setting": "[3]; 0.625 mg/kg ip", "result": 30.9, "unit": "%"}, {"measurement": "Decrease of immobility in the forced swim test in corticosterone-treated mice", "setting": "[3]; 1.25 mg/kg ip", "result": 39.5, "unit": "%"}, {"measurement": "Active dose in corticosterone model, fold lower than fluoxetine", "setting": "[3]; chronic administration", "result": 24, "unit": "fold"}, {"measurement": "Active dose in corticosterone model, fold lower than HBK-15", "setting": "[3]; comparator data ref 21", "result": 2, "unit": "fold"}]}
